Data published in patent US20190169691A1, “HERITABLE EPIGENETIC MODIFICATIONS AS MARKERS OF CHEMOTHERAPY EXPOSURE” (Washington State University, priority 2016, published 2019).
Values joined by “and” are separate entries in the source; they are usually repeats but may differ in a detail not shown here. Identical values can stand only once.

Tested on: sperm
Experiment: Semen analysis: sperm number and seminal fluid parameters (CASA) after adolescent chemotherapy
Assay type: in vivo, human
Conditions: individual adult male osteosarcoma survivors, semen collected approximately ten years after chemotherapy at 14-20 years of age
From the text: The patients were 19-30 year-old male survivors of osteosarcoma recruited from the Seattle Children's Hospital in Seattle Wash. and four collaborating institutions (Children's Hospital of Pennsylvania, Philadelphia, Pa.; Miller Children's, Long Beach, Calif.; Children's Hospital, University of Minnesota, Minneapolis, Minn.; and Children's Hospital, Vanderbilt University, Nashville, Tenn.). These men had been treated for their disease with cisplatin-based chemotherapy regimens, including ifosfamide in some cases, when they were 14-20 years of age. Each patient was recruited by in-clinic or mail recruitment protocols. […]
Each patient and control was asked to provide a semen sample via home seminal fluid collection, which we used to allow for ease of subject participation since the sample can be obtained without the individual traveling to a laboratory. […] For sperm concentration (per ml), each participant's semen was diluted and assessed by CASA (Computer Assisted Sperm Analysis). […] Although sperm motility was not assessed (because it requires a fresh sample), count and morphology data nonetheless provide a great deal of information regarding spermatogenesis and abnormalities and both are associated with an increased risk of infertility. […]

N.N.[Cl][Pt][Cl] [Cisplatin, cisplatin]
Sperm # (Total Millions): 100.2 Total Millions and 170.5 Total Millions and 178 Total Millions and 7.34 Total Millions and 21 Total Millions and 49 Total Millions and 55 Total Millions
